Source: patent US6528685B2 (Teva Pharmaceutical Industries, Ltd., priority 1994, dated 2003)
Values joined by “and” are separate entries in the source; they are usually repeats but may differ in a detail not shown here. Identical values can stand only once. Counter-ions that a name gives are not always drawn. Like-named read-outs stand apart in the source and are kept apart here.

Tests used:
[1] = system: mice; conditions: mice i.p.
[2] = system: mice; test: Neurotoxicity in mice, rotorod ataxia test; conditions: mice i.p., rotorod ataxia test
Procedure: (§1) Neurotoxicity of the claimed agents was also assessed in mice (i.p. administration) by the rotorod ataxia test and/or in rats (p.o. administration) by positional sense test and gait stance test. […] The term quantitating the neurotoxicity is the medial neurological toxic dose (TD50), was determined in the above tests.

[3] = system: mice; test: Maximal electroshock (MES) model, mice; conditions: mice; for MICE MES ED50: intraperitoneal (i.p.) administration
[4] = system: rats; test: Neurotoxicity in rats, positional sense test and gait stance test; conditions: rats p.o.; positional sense test and gait stance test
Procedure: as §1

[5] = system: rats; test: Maximal electroshock (MES) model, rats; conditions: rats, oral (p.o.) administration; median effective dose
[6] = system: mongolian gerbils; test: Global brain ischemia in gerbils; type: in vivo, mongolian gerbil; conditions: 3 injections, fraction of hippocampi protected from ischemia, 14 days post-ischemia
Procedure: Male mongolian gerbils, aged 2.5-5 months, housed 4-8 in a cage, were supplied freely with food and water and maintained at 24° C. with a 12 hour day/night cycle. […] Each artery was clamped for 5 minutes with aneurysm clips to produce global brain ischemia. The anesthesia was discontinued upon clamping. After 5 minutes the clamps were removed and the wound closed with skin clips.
For treatment, the test compound or vehicle were injected intra-peritoneally (ip) in a volume of 50 microliters of solvent per 10 g body weight. The first injection was given two minutes after clamp removal, and thereafter daily for the next 2 post-operative days (total of 3 injections).
Seven groups each of 4-8 animals were compared:
V. Ischemia—Test compound treated, one sub-group per concentration tested,
VI. Ischemia and pentobarbital (40 mg/kg) as positive control).
Analysis of neuronal damage was performed 14 days post-ischemia by counting pyramidal neurons throughout the CA1 layer of the anterior hippocampus in […] thick (paraffin) coronal brain sections stained with hematoxylin and erosin.
Percent Protection values represent the fraction of hippocampi protected from ischemia in a group of animals treated with the stated dose of compound.

[7] = system: rats; conditions: rats p.o.
[8] = system: Mechanically dissociated Neonatal Rat Cerebellum; test: Reversal of NMDA induced cell death, neonatal rat cerebellum cultures; type: cell-based; conditions: for SURVIVING CELL IN CULTURE: relative to control (100%); for PERCENT PROTECTION: cell survival minus NMDA effect (30%); for EFFECTIVE PROTECTION: percent protection x 100/70
Procedure: The cerebellum was aseptically dissociated from 6 or 7-day old rat pups and placed in a 15 ml sterile plastic conical tube containing 3 ml of Dulbecco's modified Eagle's medium (DMEM) with a high glucose concentration ([…]) and 2 mM (v/v) L-glutamine and an antibiotic antimitotic mixture. The cerebella were then dissociated after 20-25 passages through a sterile 13 gauge, 10 cm long stainless steel needle attached to a 5 ml syringe with an inserted 45 micrometer pore nylon sieve. The dissociated cells were centrifuged at 200 g for 5 minutes. The supernatant was discarded and the cells resuspended in medium enriched with 15% (v/v) heat inactivated fetal calf serum. Cell viability was determined by the tryptan blue exclusion test.
Cells were plated at a density of 200/mm^2 on poly-L-lysine coated surfaces. Poly-L-lysine coated glass coverslips were prepared at least one hour in advance of plating by immersing sterile coverslips in sterile distilled water solution containing 15 microgram/ml poly-L-lysine, and washing in sterile water just prior to use. The plated cells were covered with enriched medium and incubated at 37° C. in an atmosphere of 5% CO2 in air and 97% humidity. After three days in culture, the media was replaced with media containing the desired test compound. Each test compound was tested in duplicate. Toxic-dose response was determined for each compound.
Four groups were run in each set of experiments;
I. Control, consisting of enriched media alone,
II. N-methyl-D-aspartate (NMDA, 1 mM for 3 hours) as the cytotoxic challenge,
III. Test compound plus NMDA, and
IV. Positive control, spermine(0.01 micromoles) plus NMDA.
Nerve cell survival was evaluated by phase contrast microscopy and tryptan blue staining after 24 hours.
Surviving cells in culture are measured relative to control (100%) as described above. Percent protection is the Cell Survival for the test compound minus the NMDA effect. Thus, maximal protection is 100% minus 30% NMDA effect i.e. 70%. The Effective Protection was calculated as the percent of the Percent Protection (X) divided by the maximal protection value (e.g. X×100/70).

SMILES | MICE scMet ED50 PI [1] | MICE TD50 [2] | MICE MES ED50 [3] | RATS TD50 [4] | RATS MES 50 [5] | PERCENT PROTECTION ([6]; 1.0 mg/kg ip) | also measured
NC(=O)CNC1CCc2ccccc21 (racemic) [Compound 3, (rac)-N-(2-Acetamido)-1-aminoindan.HCl] | 36 mg/kg | >100 mg/kg and 126 mg/kg | <100 mg/kg | >50 mg/kg | <50 mg/kg | – | MICE scMet ED50 PI ([1]; listed as 3*): >130 mg/kg; MICE TD50 ([2]; listed as 3*): 127 mg/kg; MICE MES ED50 ([3]; listed as 3*): 83 mg/kg
NC(=O)CNC1CCc2ccc(F)cc21 (racemic) [Compound 5, (rac)-6-Fluoro-N-(2-acetamido)-1-aminoindan.HCl] | >200 mg/kg | >300 mg/kg | <100 mg/kg | – | – | – | MICE TD50 ([2]; listed as 5*): 138 mg/kg; activity in the MES model in mice, in words [3]: showed activity; MICE MES ED50 ([3]; listed as 5*): 58 mg/kg
N[C@H]1CCc2ccccc21 [C, (S)-1-aminoindan] | – | – | – | – | – | 50.0% | PERCENT PROTECTION ([6]; 0.1 mg/kg ip): 0%
NC(=O)CN[C@@H]1CCc2ccccc21 [Compound 1, (R)-N-(2-Acetamido)-1-aminoindan.HCl] | >200 mg/kg | 198 mg/kg | 77 mg/kg | >50 mg/kg | 50 mg/kg | – | –
CN[C@H]1CCc2ccccc21.Cl [Compound 14, (S)-N-Methyl-1-aminoindan.HCl] | – | 100 mg/kg | <100 mg/kg | >142 mg/kg | 94 mg/kg | – | RATS scMet ED50 PI [7]: >71 mg/kg
CC(=O)N[C@H]1CCc2ccccc21 [Compound 19, (S)-N-Acetyl-1-aminoindan] | – | – | – | – | – | 0% | –
Cl.N[C@@H]1CCc2ccc(O)cc21 [Compound 35, (R)-6-Hydroxy-1-aminoindan.HCl] | – | – | – | – | – | 37.5% | PERCENT PROTECTION ([6]; 0.1 mg/kg ip): 25.0%; PERCENT PROTECTION ([6]; 10.0 mg/kg ip): 37.5%; SURVIVING CELL IN CULTURE ([8]; 0.005 μM + NMDA 1 mM 3 hours): 60%; PERCENT PROTECTION ([8]; 0.005 μM + NMDA): 30%; EFFECTIVE PROTECTION ([8]; 0.005 μM + NMDA): 43%; SURVIVING CELL IN CULTURE ([8]; 0.010 μM + NMDA 1 mM 3 hours): 34%; PERCENT PROTECTION ([8]; 0.010 μM + NMDA): 4%; EFFECTIVE PROTECTION ([8]; 0.010 μM + NMDA): 6%; SURVIVING CELL IN CULTURE ([8]; 0.100 μM + NMDA 1 mM 3 hours): 30%; PERCENT PROTECTION ([8]; 0.100 μM + NMDA): 0%; EFFECTIVE PROTECTION ([8]; 0.100 μM + NMDA): 0%
Cl.NC(=O)CN[C@@H]1CCc2ccccc21 [D, (R)-Indanylglycinamide-HCl salt] | >130 mg/kg | – | 83 mg/kg | >180 mg/kg | – | – | –
